# Literature values, collected in patent US5086054A, “Novel arylcycloalkanepolyalkylamines” (SRI International, priority 1990, dated 1992).
# Entries after “also recorded” stand apart in the source; their conditions may differ.
# Key:
# [1] = clinical trials; cited from earlier work
# [2] = system: postsynaptic dopamine receptors; details: mesolimbic area; cited from earlier work
# σ receptor = details: rat spinal cord and brain membranes; cited from earlier work
# [3] = system: climbing behavior in mice; details: cited from earlier work
# [4] = system: conditioned avoidance responses in rat; details: cited from earlier work
# σ receptors = details: literature; cited from earlier work
smiles,measurement,setting,value
"C[C@@H]1CN(CCCn2c3ccccc3c3ccccc32)C[C@H](C)N1 [rimcazole, cis-9-[3-(3,5-dimethyl-1-piperazinyl)propyl]carbozole]",clinical antipsychotic effects,[1],display clinical antipsychotic effects
same,action at postsynaptic dopamine receptors,[2],did not exert its action at the level of postsynaptic dopamine receptors in the mesolimbic area
same,inhibition of specific binding of NAN,σ receptor,competitively inhibit specific binding of the σ receptor ligand NAN
same,cataleptic state,[3]; associated with EPS,without producing the cataleptic state
same,climbing behavior,[3],antagonize climbing behavior in mice
same,conditioned avoidance responses,[4],did not influence conditioned avoidance responses in rat
same,affinity / binding at σ receptors (in words),σ receptors,"potent and selective σ receptor ligands; also recorded: high-affinity, σ-selective"
